This is an account of results in patent US8975400B2, “2,3-dihydroimidazo[1, 2-c] pyrimidin-5(1 H)-one compounds use as LP-PLA2 inhibitors” (Glaxo Group Limited, priority 2011, dated 2015).

Where a name gives a salt, the structure may show the parent alone.

In experiment [1] the target is T1, recombinant human Lp-PLA2 (Homo sapiens, UniProt Q13093).
T1 sequence (Q13093 22-441): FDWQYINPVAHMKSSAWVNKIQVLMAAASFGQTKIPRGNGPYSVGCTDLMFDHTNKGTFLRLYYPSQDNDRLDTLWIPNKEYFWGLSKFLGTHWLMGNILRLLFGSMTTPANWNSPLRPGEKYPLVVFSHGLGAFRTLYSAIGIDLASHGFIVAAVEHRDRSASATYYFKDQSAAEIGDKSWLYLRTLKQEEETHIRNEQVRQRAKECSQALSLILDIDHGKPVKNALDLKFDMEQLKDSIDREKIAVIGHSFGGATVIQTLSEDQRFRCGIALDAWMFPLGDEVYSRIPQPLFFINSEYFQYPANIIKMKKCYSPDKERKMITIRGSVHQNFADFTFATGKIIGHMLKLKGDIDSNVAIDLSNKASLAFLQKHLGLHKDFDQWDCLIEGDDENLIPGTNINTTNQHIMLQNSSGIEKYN
The experiment in a line: Recombinant human Lp-PLA2 assay (rhLp-PLA2, PED6 assay). Type of experiment: biochemical. Particulars: recombinant human Lp-PLA2, PED6 substrate; upper limit for pIC50 in this assay is 9.3. The method, boiled down: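 Compound preincubated 30 min with rhLp-PLA2 (4 nM or 110 pM) in 50 mM HEPES pH 7.4, 150 mM NaCl, 1 mM CHAPS, then PED6 substrate (4 μM or 5 μM) added. After 20 min at room temperature protected from light, fluorescence read at ex 480/em 540. pIC50 derived from serial-dilution curves.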

A further experiment addresses T2, Lp-PLA2 in human plasma (Homo sapiens, UniProt Q13093).
T2 construct: This assay may detect the activity of Lp-PLA2 in human plasma; from tissue; host or cells: pooled human plasma
T2 sequence (Q13093 22-441): T1 sequence (Q13093 22-441)
The experiment in a line: Lp-PLA2 human plasma assay (Thio-PAF assay). Type of experiment: biochemical. The settings on record: pooled human plasma, 2-thio-PAF substrate; read-out: pIC50 in the thio-PAF assay (converted). The method, boiled down: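 Pooled human plasma preincubated 30 min with serially diluted compounds, then 2-thio-PAF substrate with CPM and NEM added in 50 mM HEPES pH 7.4, 150 mM NaCl, 1 mM CHAPS. TFA-quenched after 2 min, 40 min at RT, fluorescence ex 380/em 485; pIC50 from curve fit.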

On to `CN1CCn2c1cc(OCc1cc(F)c(Oc3cncc(C(F)(F)F)c3)c(F)c1)nc2=O` [Example 147, 7-((3,5-difluoro-4-((5-(trifluoromethyl)pyridin-3-yl)oxy)benzyl)oxy)-1-methyl-2,3-dihydroimidazo[1,2-c]pyrimidin-5(1H)-one], for which the IC50 in experiment [1] is 1 nM; at Lp-PLA2 in human plasma, not above 100 nM.

Consider `Cc1cc(Oc2ccc(COc3cc4n(c(=O)n3)CCN4C)cc2F)ccc1C#N` [Example 149, 4-(2-fluoro-4-(((1-methyl-5-oxo-1,2,3,5-tetrahydroimidazo[1,2-c]pyrimidin-7-yl)oxy)methyl)phenoxy)-2-methylbenzonitrile], for which the IC50 is not above 10 nM in experiment [1] and not above 1000 nM on Lp-PLA2 in human plasma.

`CN1CCn2c1cc(OCc1ccc(Oc3cc(C#N)cc(C(F)(F)F)c3)c(F)c1)nc2=O` [Example 150, 3-(2-fluoro-4-(((1-methyl-5-oxo-1,2,3,5-tetrahydroimidazo[1,2-c]pyrimidin-7-yl)oxy)methyl)phenoxy)-5-(trifluoromethyl)benzonitrile, trifluoroacetic acid salt]: the IC50 in experiment [1] is not above 10 nM; on Lp-PLA2 in human plasma it was not above 100 nM.

As for `CN1CCn2c1cc(OCc1ccc(Oc3cccc(C(F)(F)F)c3)c(C#N)c1)nc2=O` [Example E1, 5-(((1-methyl-5-oxo-1,2,3,5-tetrahydroimidazo[1,2-c]pyrimidin-7-yl)oxy)methyl)-2-(3-(trifluoromethyl)phenoxy)benzonitrile], the IC50 was not above 10 nM in experiment [1] and not above 100 nM at Lp-PLA2 in human plasma.

Regarding `CN1CCn2c1cc(OCc1cc(F)c(Oc3ccc(C(F)(F)F)nc3)c(F)c1)nc2=O` [Example E2, 7-((3,5-difluoro-4-((6-(trifluoromethyl)pyridin-3-yl)oxy)benzyl)oxy)-1-methyl-2,3-dihydroimidazo[1,2-c]pyrimidin-5(1H)-one], the results for the IC50 (in experiment [1]; on Lp-PLA2 in human plasma) were not above 10 nM and not above 1000 nM, respectively.

For the compound `CN1CCn2c1cc(OCc1ccc(Oc3ccc(C(F)(F)F)nc3)c(F)c1)nc2=O` [Example E3, 7-((3-fluoro-4-((6-(trifluoromethyl)pyridin-3-yl)oxy)benzyl)oxy)-1-methyl-2,3-dihydroimidazo[1,2-c]pyrimidin-5(1H)-one], the IC50 in experiment [1] is not above 10 nM; at Lp-PLA2 in human plasma, not above 1000 nM.

On to `CN1CCn2c1cc(OCc1ccc(Oc3ccc(F)c(F)c3)c(F)c1)nc2=O` [Example E4, 7-((4-(3,4-difluorophenoxy)-3-fluorobenzyl)oxy)-1-methyl-2,3-dihydroimidazo[1,2-c]pyrimidin-5(1H)-one], for which the figures for the IC50 (in experiment [1]; on Lp-PLA2 in human plasma) were not above 1 nM and not above 100 nM, respectively.

With `CN1CCn2c1cc(OCc1ccc(Oc3ccc(Cl)c(C(F)(F)F)c3)cc1)nc2=O` [Example E5, 7-((4-(4-chloro-3-(trifluoromethyl)phenoxy)benzyl)oxy)-1-methyl-2,3-dihydroimidazo[1,2-c]pyrimidin-5(1H)-one], the IC50 in experiment [1] is not above 10 nM; on Lp-PLA2 in human plasma it was not above 100 nM.

With `CN1CCn2c1cc(OCCc1ccc(Oc3ccc(Cl)c(C(F)(F)F)c3)cc1)nc2=O` [Example E13, 7-(4-(4-chloro-3-(trifluoromethyl)phenoxy)phenethoxy)-1-methyl-2,3-dihydroimi-dazo[1,2-c]pyrimidin-5(1H)-one], the IC50 was not above 10 nM in experiment [1] and not above 1000 nM on Lp-PLA2 in human plasma.

Turning to `CN1CCn2c1cc(OCc1ccc(Oc3ccc(F)c(Cl)c3)c(F)c1)nc2=O` [Example E15, 7-((4-(3-chloro-4-fluorophenoxy)-3-fluorobenzyl)oxy)-1-methyl-2,3-dihydroimida-zo[1,2-c]pyrimidin-5(1H)-one], the IC50 was not above 10 nM in experiment [1] and not above 1000 nM on Lp-PLA2 in human plasma.

In the case of `CN1CCn2c1cc(OCc1ccc(Oc3cccc(F)c3)c(C#N)c1)nc2=O` [Example E18, 2-(3-fluorophenoxy)-5-(((1-methyl-5-oxo-1,2,3,5-tetrahydroimidazo[1,2-c]pyrimidin-7-yl)oxy)methyl)benzonitrile], the values for the IC50 (in experiment [1]; on Lp-PLA2 in human plasma) were not above 10 nM and not above 1000 nM, respectively.

Consider `CN1CCn2c1cc(OCc1ccc(Oc3cccc(C(F)(F)F)c3)c(F)c1)nc2=O` [Example E20, 7-((3-fluoro-4-(3-(trifluoromethyl)phenoxy)benzyl)oxy)-1-methy-2,3-dihydroimid-azo[1,2-c]pyrimidin-5(1H)-one], for which the IC50 in experiment [1] was not above 10 nM; at Lp-PLA2 in human plasma it was not above 1000 nM.

As to `CN1CCn2c1cc(OCc1ccc(Oc3ccc(C(F)(F)F)cc3)c(C#N)c1)nc2=O` [Example E24, 5-(((1-methyl-5-oxo-1,2,3,5-tetrahydroimidazo[1,2-c]pyrimidin-7-yl)oxy)methyl)-2-(4-(trifluoromethyl)phenoxy)benzonitrile, trifluoroacetic acid salt], the IC50 is not above 10 nM in experiment [1] and not above 1000 nM on Lp-PLA2 in human plasma.

Turning to `CN1CCn2c1cc(OCc1ccc(Oc3ccc(Cl)c(F)c3)cc1)nc2=O` [Example E25, 7-((4-(4-chloro-3-fluorophenoxy)benzyl)oxy)-1-methyl-2,3-dihydroimidazo[1,2-c]pyrimidin-5(1H)-one], the IC50 in experiment [1] is not above 10 nM; at Lp-PLA2 in human plasma, not above 1000 nM.

On to `CN1CCn2c1cc(OCc1ccc(Oc3ccc(F)c(C(F)(F)F)c3)cc1)nc2=O` [Example E29, 7-((4-(4-fluoro-3-(trifluoromethyl)phenoxy)benzyl)oxy)-1-methyl-2,3-dihydroimid-azo[1,2-c]pyrimidin-5(1H)-one], for which the figures for the IC50 (in experiment [1]; at Lp-PLA2 in human plasma) were not above 10 nM and not above 1000 nM, respectively.

With `CN1CCn2c1cc(OCc1ccc(Oc3ccc(F)c(F)c3)c(C#N)c1)nc2=O` [Example E34, 2-(3,4-difluorophenoxy)-5-(((1-methyl-5-oxo-1,2,3,5-tetrahydroimidazo[1,2-c]pyrimidin-7-yl)oxy)methyl)benzonitrile], the results for the IC50 (in experiment [1]; at Lp-PLA2 in human plasma) were not above 10 nM and not above 100 nM, respectively.

Turning to `CN1CCn2c1cc(OCc1ccc(Oc3ccc(C(F)(F)F)cn3)c(C#N)c1)nc2=O` [Example E35, 5-(((1-methyl-5-oxo-1,2,3,5-tetrahydroimidazo[1,2-c]pyrimidin-7-yl)oxy)methyl)-2-((5-(trifluoromethyl)pyridin-2-yl)oxy)benzonitrile, trifluoroacetic acid salt], the IC50 in experiment [1] was not above 10 nM; on Lp-PLA2 in human plasma it was not above 1000 nM.

In the case of `CN1CCn2c1cc(OCc1ccc(Oc3ccc(Cl)c(F)c3)c(C#N)c1)nc2=O` [Example E37, 2-(4-chloro-3-fluorophenoxy)-5-(((1-methyl-5-oxo-1,2,3,5-tetrahydroimidazo[1,2-c]pyrimidin-7-yl)oxy)methyl)benzonitrile, trifluoroacetic acid salt], the IC50 in experiment [1] is not above 10 nM; at Lp-PLA2 in human plasma, not above 1000 nM.

For `CN1CCn2c1cc(OCc1ccc(Oc3cc(F)c(F)c(F)c3)c(C#N)c1)nc2=O` [Example E38, 5-(((1-methyl-5-oxo-1,2,3,5-tetrahydroimidazo[1,2-c]pyrimidin-7-yl)oxy)methyl)-2-(3,4,5-trifluorophenoxy)benzonitrile, trifluoroacetic acid salt], the IC50 in experiment [1] is not above 10 nM; on Lp-PLA2 in human plasma it was not above 1000 nM.

For `CN1CCn2c1cc(OCc1ccc(Oc3ccc(Cl)c(Cl)c3)c(F)c1)nc2=O` [Example E41, 7-((4-(3,4-dichlorophenoxy)-3-fluorobenzyl)oxy)-1-methyl-2,3-dihydroimidazo[1,2-c]pyrimidin-5(1H)-one], the figures for the IC50 (in experiment [1]; on Lp-PLA2 in human plasma) were not above 10 nM and not above 1000 nM, respectively.

Take `CN1CCn2c1cc(OCc1ccc(Oc3cc(F)c(F)c(F)c3)c(F)c1)nc2=O` [Example E42, 7-((3-fluoro-4-(3,4,5-trifluorophenoxy)benzyl)oxy)-1-methyl-2,3-dihydroimi-dazo[1,2-c]pyrimidin-5(1H)-one]: the figures for the IC50 (in experiment [1]; at Lp-PLA2 in human plasma) were not above 10 nM and not above 1000 nM, respectively.

For the compound `CN1CCn2c1cc(OCc1ccc(Oc3ccc(F)c(C(F)(F)F)c3)c(C#N)c1)nc2=O` [Example E44, 2-(4-fluoro-3-(trifluoromethyl)phenoxy)-5-(((1-methyl-5-oxo-1,2,3,5-tetrahydroi-midazo[1,2-c]pyrimidin-7-yl)oxy)methyl)benzonitrile, trifluoroacetic acid salt], the IC50 is less than 0.501 nM in experiment [1] and not above 100 nM at Lp-PLA2 in human plasma.

For the compound `CN1CCn2c1cc(OCc1ccc(Oc3ccc(F)c(C(F)(F)F)c3)c(F)c1)nc2=O` [Example E45, 7-((3-fluoro-4-(4-fluoro-3-(trifluoromethyl)phenoxy)benzyl)oxy)-1-methyl-2,3-dihydroimidazo[1,2-c]pyrimidin-5(1H)-one, trifluoroacetic acid salt], the IC50 in experiment [1] was not above 1 nM; at Lp-PLA2 in human plasma it was not above 100 nM.

With `CN1CCn2c1cc(OCc1ccc(Oc3ccc(C(F)(F)F)nc3)c(C#N)c1)nc2=O` [Example E49, 5-(((1-methyl-5-oxo-1,2,3,5-tetrahydroimidazo[1,2-c]pyrimidin-7-yl)oxy)methyl)-2-((6-(trifluoromethyl)pyridin-3-yl)oxy)benzonitrile], the IC50 is not above 10 nM in experiment [1] and not above 100 nM on Lp-PLA2 in human plasma.
